Measurements published in article PMC5122374 (Oncotarget, 2016).

What was measured:
[1] = tested on: EBC-1 human NSCLC xenograft; experiment: In vivo antitumor activity, EBC-1 xenograft
Method: . Animal procedures were performed according to institutional ethical guidelines of animal care. […]. After that, the well-developed tumors were cut into 1 mm^3 fragments and transplanted s.c. into the right flank of nude mice using a trocar. When the tumor volume reached 100-200 mm^3, the mice were randomly assigned into vehicle and treatment groups (n = 6 per group). […] The sizes of the tumors were measured twice per week using microcaliper. The tumor volume (TV) was calculated as: TV = (length×width^2)/2 and the individual relative tumor volume (RTV) was calculated as follows: RTV = Vt/V0, where Vt is the volume on each day, and V0 is the volume at the beginning of the treatment. RTV was shown on indicated days as the median RTV ± SE indicated for groups of mice.
Tumor specimens were fixed in 4% paraformaldehyde for 24 h. Tumor samples were subsequently paraffin-embedded, and sliced onto microscope slides. After dewaxing and blocking endogenous peroxidase activity with 3% H2O2, the sections were incubated with 1.5% normal goat serum, followed by overnight incubation at 4°C with anti-phospho-c-Met antibody (Y1234/1235), anti-CD31 antibody or anti-Ki67 antibody. Then, the sections were incubated with biotin-conjugated anti-rabbit IgG for 2 h at 37°C followed by incubating for 1 h with avidin-biotin-peroxidase complex (ABC) using a Vectastain ABC kit(Vector Laboratories). Staining was detected using the DAB (3, 3′-diaminobenzidine tetrahydrochloride) Liquid System (ZSGB-Bio) and imaged in 5 different fields of each section. Anti-phospho-c-Met and anti-CD31 antibody immunostained sections were counterstained using hematoxylin.

[2] = Cell proliferation assay, cell panel (SRB or MTT); format: cell-based; details: human, panel of cells with low c-Met expression or activation; read-out: cytotoxicity IC50 values
Method: (§1) Cells were seeded in 96-well tissue culture plates. On the next day, cells were exposed to various concentrations of compounds and further cultured for 72 h. For Human umbilical vascular endothelial cells (HUVEC) (passage 3) were transferred to basal medium (without growth factor and serum) for 24 h before compounds treated for another 24 h. Finally, cell proliferation was determined using sulforhodamine B (SRB) assay, Thiazolyl Blue Tetrazolium Bromide (MTT; Sigma) assay or Cell Counting Kit (CCK-8) assay. IC50 values were calculated by concentration-response curve fitting using a SoftMax pro-based four-parameter method.

EBC-1 cells [3] = experiment: Cell cycle analysis by flow cytometry; format: cell-based, human; details: EBC-1, 24 h
Method: (§2) After 24 h, cells were collected, fixed and stained with propidium iodide (10 μg/mL) for 30 min, then analyzed using a flow cytometer (FACS Caliber instrument; Becton, Dickinson & Co.). Data were plotted using CellQuest (Becton, Dickinson &Co).

MKN-45 cells [4] = experiment: Cell cycle analysis by flow cytometry; format: cell-based, human; details: MKN-45, 24 h
Method: as §2

MDCK cells [5] = experiment: HGF-induced scattering assay; format: cell-based, canine; details: 18 to 24 h
Method: MDCK cells (1.5×10^3 cells per well) were plated in 96-well plates and grown overnight. […] The cells were fixed with 4% paraformaldehyde for 15 min at room temperature and then stained with 0.2% crystal violet. The assay was performed in triplicate. Images were obtained using an Olympus IX51 microscope.

NCI-H441 cells [6] = experiment: HGF-induced Matrigel invasion assay; format: cell-based, human; details: NCI-H441, HGF 100 ng/mL, 24 h
Method: (§3) For the migration assay, NCI-H441 cells suspended in serum-free medium (1.5×10^5 cells per well) were seeded in 24-well Transwell plates (pore size, 8 μm; Corning). […] The cultures were maintained for 24 h, followed by the removal of non-motile cells at the top of the filter using a cotton swab. The migrating cells were fixed in paraformaldehyde (4%) and stained with crystal violet (0.1%) for 15 min at room temperature. The dye that was taken up by the cells bound to the membrane was released by the addition of 100 μL 10% acetic acid, and the absorbance of the resulting solution was measured at 595 nm using a multiwell spectrophotometer (SpetraMAX 190, from Molecular Devices, Palo Alto, CA, USA). The assay was performed in triplicate. Images were obtained using an Olympus BX51 microscope.
For the invasion assay, NCI-H441 cells were cultured in the top chambers containing Matrigel-coated membrane inserts (Matrigel, BD). The ensuing procedure was identical to the migration assay. The assay was performed in triplicate. Images were obtained using an Olympus BX51 microscope.

[7] = tested on: MMP-9 expression in NCI-H441 cells; experiment: Gelatin zymography of HGF-induced MMP-9 expression; format: cell-based, human; details: NCI-H441, HGF 100 ng/mL, 24 h, dose-dependent
Method: NCI-H441 cells were seeded in a six-well plate (5×10^5 per well) and incubated at 37°C. […] The conditioned medium was collected and centrifuged at 12,000 g for 15 min and concentrated by Micro centrifugal filter device (Millipore Corporation). Then the supernatants were collected and separated on 7.5% SDS-PAGE with 2 mg/mL gelatin incorporated into the gel mixture. Following electrophoresis at 4°C, the gels were rinsed briefly with distilled water and washed three times (15 min each) with 150 ml of 2.5% Triton X-100 solution on a rotary shaker. The gels were then incubated at 37°C for 18 h in 250 ml of 50 mmol/L Tris·HCl (pH 7.5) that contained 10 mmol/L CaCl2, 1 μM ZnCl2, 1% Triton X-100, and 0.02% NaN3. After incubation, the gels were stained with 100 ml of 50% methanol, 10% acetic acid, and 0.1% Coomassie blue R-250 for 3 h, then destained with 50% methanol and 10% acetic acid. Finally, the gels were immersed in distilled water for 20 min and quantified by densitometric analysis using Image Lab software (Bio-Rad Laboratories, Inc.).

NCI-H441 cells [8] = experiment: HGF-induced Transwell migration assay; format: cell-based, human; details: NCI-H441, HGF 100 ng/mL, 24 h
Method: as §3

[9] = tested on: uPA activity in MDCK cells; experiment: Urokinase-type plasminogen activator (uPA) assay; format: cell-based, canine; details: HGF 100 ng/mL, 24 h, dose-dependent
Method: MDCK cells (1.5-2 ×10^3 cells per well) were plated in 96-well plate and grown overnight. […] The plate was processed for determination of plasminogen activity by first rinsing wells twice with DMEM (without phenol red), then adding 200 μL of reaction buffer [10%(v/v) 3 mM chromozym PL (Roche) in 100 mM glycine, 40%(v/v) 50 mM Tris (pH 8.2), 50%(v/v) 0.05 unit/mL plasminogen (Roche) in DMEM (without phenol red), and 0.2% Tween-20] to each well. After incubation at 37°C, 5% CO2 for 6 h, the absorbance of each well was read at 405 nm.

MDCK cells [10] = experiment: HGF-induced cell branching morphogenesis in collagen; format: cell-based, canine; details: 5 days
Method: MDCK cells at a density of 2×10^4 cells/mL in DMEM medium were mixed with an equal volume of collagen I solution and plated at 0.1 mL/well in a 96-well culture plate. […] The medium was replaced with fresh growth medium every 2 days. Images were obtained using an Olympus IX51 microscope after 5 days.

EBC-1 cells [11] = experiment: Cell proliferation assay (SRB or MTT); format: cell-based; details: Homo sapiens, EBC-1, 72 h; read-out: anti-proliferative IC50
Method: as §1

NCI-H1993 cells = experiment: Cell proliferation assay (SRB or MTT); format: cell-based; details: Homo sapiens, NCI-H1993, 72 h; read-out: anti-proliferative IC50
Method: as §1

MKN-45 cells [12] = experiment: Cell proliferation assay (SRB or MTT); format: cell-based; details: Homo sapiens, MKN-45, 72 h, read-out: anti-proliferative IC50
Method: as §1

SNU-5 cells = experiment: Cell proliferation assay (SRB or MTT); format: cell-based; details: Homo sapiens, SNU-5, 72 h, read-out: anti-proliferative IC50
Method: as §1

[13] = tested on: SNU-5 human gastric carcinoma xenograft; experiment: In vivo antitumor activity, SNU-5 xenograft; design: species or system nude mice
Method: Female nude mice (4-6 weeks) were housed five or six mice per cage in a specific pathogen-free room with a 12 h light/dark schedule at 25°C ± 1°C and were fed an autoclaved chow diet and water ad libitum. Animal procedures were performed according to institutional ethical guidelines of animal care. […] After that, the well-developed tumors were cut into 1 mm^3 fragments and transplanted s.c. into the right flank of nude mice using a trocar. […] The sizes of the tumors were measured twice per week using microcaliper. The tumor volume (TV) was calculated as: TV = (length×width^2)/2 and the individual relative tumor volume (RTV) was calculated as follows: RTV = Vt/V0, where Vt is the volume on each day, and V0 is the volume at the beginning of the treatment. RTV was shown on indicated days as the median RTV ± SE indicated for groups of mice. […] Tumor specimens were fixed in 4% paraformaldehyde for 24 h. Tumor samples were subsequently paraffin-embedded, and sliced onto microscope slides. […] Staining was detected using the DAB (3, 3'-diaminobenzidine tetrahydrochloride) Liquid System (ZSGB-Bio) and imaged in 5 different fields of each section. Anti-phospho-c-Met and anti-CD31 antibody immunostained sections were counterstained using hematoxylin. Serum levels of human IL-8 were detected by using Human IL-8 Quantikine ELISA Kit (R&D Systems, Inc.) follows the instructions.

[14] = tested on: c-Met phosphorylation and its downstream signaling; experiment: Immunoblotting of c-Met signaling in HGF-stimulated HUVEC cells; format: cell-based, human; details: Simm530 2 h then 100 ng/mL HGF 15 min
Method: Cells were cultured under regular growth conditions to exponential growth phase. […] Those cell lysates were subsequently resolved on 10% SDS-PAGE, and transferred to nitrocellulose membranes. Proteins were probed with specific antibody then subsequently with secondary horseradish peroxidase-conjugated antibody. Finally, immunoreactive proteins were detected using an enhanced chemiluminescence detection reagent (Pierce, Thermo Fisher Scientific Inc.).

## Cn1cc(-c2cnc3nnc(C(F)(F)c4ccc5ncccc5c4)n3n2)cn1 [Simm530]
[1]; 12.5 mg/kg oral twice daily
  tumor response: Tumor stasis
[1]; 100 mg/kg twice daily
  mice showing no signs of tumor: 4 of the 6
[1]; 50 and 100 mg/kg oral twice daily
  tumor response: tumor regression
[1]; 2 hours after the final dosage, immunoblotting
  intratumoral phosphorylation of c-Met: marked and dose-dependent inhibition
[1]; IHC, 2 h after final administration
  CD31-positive endothelial cells (microvessel density): significant reduction
[1]; all tested dosages, data not shown
  tolerance (body weight): lack of significant weight loss
[2]
  IC50 at 72 h: > 50000 nM
EBC-1 cells [3]
  sub-G1 cell population (apoptosis): no obvious sub-G1 cell population
EBC-1 cells [3]; dose-dependent, P<0.001
  effect on cell cycle distribution: G1/S phase arrest
MKN-45 cells [4]
  sub-G1 cell population (apoptosis): no obvious sub-G1 cell population
MKN-45 cells [4]; dose-dependent, P<0.001
  effect on cell cycle distribution: G1/S phase arrest
MDCK cells [5]
  effect on HGF-induced cell scattering: strongly inhibited
NCI-H441 cells [6]
  dose sufficient to block the movement of most cells (invasion): 4 nM
[7]
  effect on HGF-induced MMP expression: significantly inhibited
NCI-H441 cells [8]
  dose sufficient to block the movement of most cells (motility): 4 nM
[9]
  effect on HGF-induced urokinase activity: significantly inhibited
MDCK cells [10]
  effect on HGF-induced branching morphogenesis: strongly inhibited
EBC-1 cells [11]
  IC50: 0.7 nM
NCI-H1993 cells
  IC50: 0.8 nM
MKN-45 cells [12]
  IC50: 0.7 ± 0.1 nM
SNU-5 cells
  IC50: 0.9 ± 0.2 nM
[13]; 12.5 mg/kg and 25 mg/kg oral twice daily
  tumor response: tumor stasis and regression
[13]; 2 hours after the final dosage, immunoblotting and IHC
  intratumoral phosphorylation of c-Met: marked and dose-dependent inhibition
[13]; human IL-8 ELISA, day 21, P<0.001
  IL-8 plasma level: significant reduction
[14]
  effect on c-Met phosphorylation and its downstream signaling: potently inhibited
